Laboratory results reported in ChEMBL document CHEMBL1201862, “PubChem BioAssay data set” (2004).
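The compound was tested at five concentrations on cells cultured in 96-well plates, with a 48-hour exposure period. GI50 = concentration required for 50% inhibition of growth.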 Activity calls are given as the source filed them. No stated cut-off is given here; in the data, active = GI50 up to about 1.1 µM and inactive = higher.

What was measured:
Experiment in all cases: NCI anticancer screen, dose series, 48 h
A498 = test system: A498
A549 = test system: A549
BT-549 = test system: BT-549
HCT-116 = test system: HCT-116
HOP-62 = test system: HOP-62
HT-29 = test system: HT-29
IGROV-1 = test system: IGROV-1
K562 = test system: K562
Malme-3M = test system: Malme-3M
NCI-H460 = test system: NCI-H460
NCI/ADR-RES = test system: NCI/ADR-RES
OVCAR-4 = test system: OVCAR-4
OVCAR-8 = test system: OVCAR-8
PC-3 = test system: PC-3
RXF 393 = test system: RXF 393
SNB-19 = test system: SNB-19
SNB-75 = test system: SNB-75
SW-620 = test system: SW-620
TK-10 = test system: TK-10
UACC-257 = test system: UACC-257

Measured: GI50

O=C(CCN1CCCCC1)Nc1ccc2c(c1)C(=O)c1ccc(NC(=O)CCN3CCCCC3)cc1C2=O
inactive: A498 13.7 µM | A549 4.84 µM | BT-549 14.6 µM | HCT-116 1.71 µM | HOP-62 2.12 µM | HT-29 3.24 µM | IGROV-1 3.61 µM | K562 2.25 µM | Malme-3M 10.5 µM | NCI-H460 1.57 µM | NCI/ADR-RES 10.9 µM | OVCAR-4 3.5 µM | OVCAR-8 5.57 µM | PC-3 2.26 µM | RXF 393 3.85 µM | SNB-19 4.48 µM | SNB-75 3.82 µM | SW-620 2.1 µM | TK-10 8.34 µM | UACC-257 16.3 µM

O=C1CC(NC2CC(=O)c3c(Br)sc(Br)c32)c2c(Br)sc(Br)c21 (stereo not drawn)
inactive: A498 18.6 µM | A549 17.5 µM | BT-549 14.1 µM | HCT-116 2.14 µM | HOP-62 2.99 µM | HT-29 2.84 µM | IGROV-1 2.99 µM | K562 2.55 µM | Malme-3M 2.29 µM | NCI-H460 18 µM | NCI/ADR-RES 13.9 µM | OVCAR-4 8.51 µM | OVCAR-8 3.26 µM | PC-3 2.48 µM | RXF 393 3.38 µM | SNB-19 14.9 µM | SNB-75 15.7 µM | SW-620 2.08 µM | TK-10 2.88 µM | UACC-257 2.03 µM

CC(=O)N1N=C(c2c(O)ccc3ccccc23)CC1c1ccc(Cl)cc1 (stereo not drawn)
inactive: A498 26.1 µM | A549 23.6 µM | BT-549 21 µM | HCT-116 15 µM | HOP-62 16 µM | HT-29 24.7 µM | IGROV-1 12.4 µM | K562 13.1 µM | Malme-3M 17.5 µM | NCI-H460 15.1 µM | NCI/ADR-RES 14.5 µM | OVCAR-4 19.6 µM | OVCAR-8 26.9 µM | PC-3 17 µM | RXF 393 17.1 µM | SNB-75 22 µM | SW-620 28.4 µM | TK-10 30.1 µM | UACC-257 27.9 µM

CNc1ccccc1S(=O)(=O)c1ccccc1[N+](=O)[O-]
inactive: A498 > 100 µM | A549 77.3 µM | BT-549 23.6 µM | HCT-116 66.5 µM | HOP-62 > 100 µM | HT-29 93.8 µM | IGROV-1 > 100 µM | K562 42.6 µM | Malme-3M 99.8 µM | NCI-H460 58.7 µM | NCI/ADR-RES 45.5 µM | OVCAR-4 27.2 µM | OVCAR-8 > 10 µM | PC-3 52.4 µM | RXF 393 > 100 µM | SNB-19 74 µM | SNB-75 52.4 µM | SW-620 > 100 µM | TK-10 > 100 µM

CCCC(=O)OCC1OC(n2cc(F)c(=O)[nH]c2=O)C(F)C1O (stereo not drawn)
inactive: A498 8.39 µM | A549 5.85 µM | BT-549 13.9 µM | HCT-116 > 22.4 µM | HOP-62 4.57 µM | HT-29 > 86.3 µM | IGROV-1 > 76.7 µM | K562 6.35 µM | Malme-3M > 80 µM | NCI-H460 2.86 µM | NCI/ADR-RES 53.3 µM | OVCAR-4 > 100 µM | OVCAR-8 > 38.5 µM | PC-3 > 100 µM | RXF 393 > 100 µM | SNB-19 78.5 µM | SNB-75 > 55 µM | SW-620 > 100 µM | TK-10 > 100 µM | UACC-257 > 59.7 µM

CC1(C)CC[C@]2(C(=O)O)CC[C@]3(C)C(=CC[C@@H]4[C@@]5(C)C[C@H](O)[C@H](O)[C@@](C)(C(=O)O)[C@@H]5CC[C@]43C)[C@@H]2C1
inactive: A498 > 100 µM | A549 > 100 µM | BT-549 > 100 µM | HCT-116 > 100 µM | HOP-62 > 100 µM | HT-29 > 100 µM | IGROV-1 > 89.3 µM | K562 78.3 µM | Malme-3M > 100 µM | NCI-H460 > 100 µM | NCI/ADR-RES > 100 µM | OVCAR-4 > 82.2 µM | OVCAR-8 > 100 µM | PC-3 > 100 µM | RXF 393 > 100 µM | SNB-19 > 100 µM | SNB-75 > 100 µM | SW-620 > 100 µM | TK-10 > 100 µM | UACC-257 > 100 µM

CN(C)Cc1cc(C(=O)/C=C/c2ccccc2)cc(CN(C)C)c1O
inactive: A498 21.8 µM | A549 23.4 µM | BT-549 19.9 µM | HCT-116 19.7 µM | HOP-62 32.4 µM | HT-29 16.9 µM | IGROV-1 31.9 µM | K562 14.2 µM | Malme-3M 22.6 µM | NCI-H460 15.9 µM | NCI/ADR-RES 26.5 µM | OVCAR-4 20.4 µM | OVCAR-8 27 µM | PC-3 12.6 µM | RXF 393 16.5 µM | SNB-19 29.1 µM | SNB-75 24.9 µM | SW-620 18.2 µM | TK-10 37.3 µM | UACC-257 13.3 µM
